Assay results as given in patent publication US7067248B2 (priority 2002, dated 2006).

How the values were obtained:
VV [1] = type: cell-based, vaccinia virus
VV [2] = settings: cited from earlier work
orthopoxvirus = settings: cited from earlier work

Compound: c1cnc2c(c1)ccc1cccnc12 [1,10-phenanthroline]
- Inhibition of VV replication (FIG. 12) (VV [1]): potent inhibitors of VV replication
- VV replication (VV [1]): completely blocked

Compound: c1cnc2c(c1)ccc1ncccc12 [1,7-phenanthroline]
- VV replication (VV [1]): no effect

Compound: α-amanitin
- Phenotype of VV replication (VV [2]): abortive-late phenotype

Compound: Nc1ccn(C[C@@H](CO)OCP(=O)(O)O)c(=O)n1 [Cidofovir]
- Anti-orthopoxvirus activity (orthopoxvirus): potent anti-orthopoxvirus inhibitor

Compound: pepstatin A
- VV replication (VV [1]): no effect

Compound: NC(=O)CI [iodoacetamide]
- Inhibition of VV replication (FIG. 12) (VV [1]): potent inhibitors of VV replication
- VV replication (VV [1]): completely blocked

Compound: CN1C(=O)/C(=N\NC(N)=S)c2ccccc21 [methisazone, N-methylisatin β-thiosemicarbazone]
- Anti-orthopoxvirus activity (orthopoxvirus): effective at inhibiting orthopoxvirus infections in cultured cells
